# Literature values, collected in patent US20110195912A1, “Oligomer-Protease Inhibitor Conjugates” (Nektar Therapeutics, priority 2008, published 2011).
# Where two headings read alike, the source gives them in different places.
# Legend:
# [1] = tested on: HCV; settings: monotherapy, twice daily doses for 14 days
# [2] = rat; twice daily oral dosing for seven days
# [3] = monkey; twice daily oral dosing for seven days
# [4] = tested on: HCV genotype 1; settings: 100-400 mg twice daily; patients with HCV genotype 1 that had failed pegIFN-α 2a therapy
# [5] = tested on: HCV genotype 1; settings: 200 or 400 mg thrice daily, 14 days; non-responder patients with HCV genotype 1
SMILES,viral RNA levels [1],liver trough concentrations following the last dose [2],liver trough concentrations following the last dose [3],antiviral activity as a monotherapy [4],efficacy in combination with pegIFN-α2a [5]
CC(C)(C)OC(=O)N[C@H]1CCCCC/C=C\[C@@H]2C[C@@]2(C(=O)NS(=O)(=O)C2CC2)NC(=O)[C@@H]2C[C@@H](OC(=O)N3Cc4cccc(F)c4C3)CN2C1=O [ITMN-191],rapid reduction in viral RNA levels,in excess of in vitro EC90 values,in excess of in vitro EC90 values,,
CC(C)(C)NC(=O)N[C@H](C(=O)N1CC2[C@@H]([C@H]1C(=O)NC(CC1CCC1)C(=O)C(N)=O)C2(C)C)C(C)(C)C (some centres unmarked) [Boceprevir],,,,demonstrated antiviral activity,efficacious
